How the values were obtained:
Type in all cases: cell-based, mouse
IFN-α = IFN-α ELISA on DRGs incubated ex vivo or cultured with ADU-S100
Procedure: (§1) ELISA: Mouse high-sensitivity IFN-α ELISA kit (42115-1) and IFN-β ELISA kit (42410-1) were purchased from PBL Assay Science and performed on serum, DRG lysate, or cell culture medium according to the manufacturer's instructions. Serum was obtained from whole blood through cardiac puncture at the time of euthanasia, followed by incubation for 30 minutes at 35° C. to promote clotting. Subsequently, samples were centrifuged at 4° C. at 2,500 xg for 15 minutes, followed by careful isolation of serum (supernatant). For ELISA on cell culture medium, samples were first concentrated approximately 10-fold using Amicon centrifugal filters (Millipore Sigma, UFC8030). DRGs were lysed by mechanical homogenization in a pH 7.4 CHAPS lysis buffer (FivePhoton Biochemicals, CIB-1-7.4-60) supplemented with a protease inhibitor cocktail (Millipore Sigma, 11697498001) and phosphatase inhibitor cocktail (FivePhoton Biochemicals, PIC1). For DRG lysate, Pierce BCA (ThermoFisher, 23225) assays were performed according to the manufacturer's instructions to quantify protein concentration, and ELISA results are reported normalized to protein concentration (pg/mg DRG tissue). To measure IFN-β levels in cerebrospinal fluid (CSF) isolated by spinal catheter from NHPs, we utilized a cynomolgus IFN-β ELISA kit (PBL Assay Science, 46415-1), which was performed using 50 μl CSF according to the manufacturer's instructions. Standard curves were performed in all experiments and values interpolated using GraphPad Prism version.

IFN-β = IFN-β ELISA on DRGs incubated ex vivo or cultured with ADU-S100; conditions: for IFN-β levels in DRG lysate: ex vivo incubation 30 μM, 2 h
Procedure: as §1

DRG nociceptors = assay: Whole-mount DRG patch clamp from tumor-bearing mice ex vivo; conditions: 30 μM, 2 h, DRGs isolated d11
Source text: Whole-cell patch clamp recordings in whole-mount DRGs ex vivo. Four-week-old male C57BL/6 mice were used to establish the bone cancer pain model by intrafemoral inoculation of LLC, leading to nociceptor hyperexcitability in the ipsilateral L3-L5 DRGs which extend afferent nerve fibers to the tumor-bearing femur. […] 11d after tumor implantation, mice were euthanized followed by careful isolation of L3-L5 DRGs, which were placed in oxygenated artificial cerebrospinal fluid. DRGs were lightly digested for 20 minutes using an enzymatic mixture consisting of 0.32 ml collagenase A (1 mg/mL) and Trypsin (0.25%). Intact DRGs were then incubated in ACSF oxygenated with 95% O2 and 5% CO2, supplemented with vehicle (PBS) or 30 μM DMXAA in PBS for 2 hours at 37° C. Following incubation, DRGs were transferred to a recording chamber, where neurons could be visualized using a 40× water-immersion objective on an Olympus BX51WI microscope. Patch pipettes were pulled from borosilicate capillaries (Chase Scientific Glass Inc.) and filled with a pipette solution containing (in mM): 126 potassium gluconate, 10 NaCl, 1 MgCl2, 10 EGTA, 2 Na-ATP, and 0.1 Mg-GTP, adjusted to pH 7.3 with KOH. The external solution was composed of (in mM): 140 NaCl, 5 KCl, 2 CaCl2, 1 MgCl2, 10 HEPES, 10 glucose, adjusted to pH 7.4 with NaOH. […] Data were recorded and analyzed using the pClamp10 (Axon Instruments) software.

[1] = cultured DRGs from STING-WT mice

Compound	IFN-α in culture medium (IFN-α; [1])	increase in IFN-α in STING-KO and STING-cKO DRGs (IFN-α; ex vivo incubation)	IFN-α levels in DRG lysate (IFN-α; ex vivo incubation 30 μM, 2 h, WT mice)	IFN-β in culture medium (IFN-β; [1])	increase in IFN-β in STING-KO and STING-cKO DRGs (IFN-β; ex vivo incubation)	IFN-β levels in DRG lysate (IFN-β; STINGfx/fx, Nav1.8-Cre mice)	IFN-β levels in DRG lysate (IFN-β; WT mice)	current-evoked action potential firing (DRG nociceptors)	rheobase of nociceptors (DRG nociceptors)
Nc1ncnc2c1ncn2[C@@H]1O[C@@H]2COP(=O)([S-])O[C@@H]3[C@H](O)[C@@H](COP([O-])(=S)O[C@H]2[C@H]1O)O[C@H]3n1cnc2c(N)ncnc21.[Na+].[Na+] (stereo partly drawn) [ADU-S100, (2′-5′)-[P(R)]-5′-O-[(R)-hydroxymercaptophosphinyl]-P-thioadenylyl-adenosine cyclic dinucleotide]	increased IFN-α and IFN-β in the culture medium	abolished in STING-KO mice and largely abolished in STING-cKO mice	IFN-α levels in DRG lysate were increased	increased IFN-α and IFN-β in the culture medium	abolished in STING-KO mice and largely abolished in STING-cKO mice	significant elevation of IFN-β in STINGfx/fx; Nav1.8-Cre DRG lysate, but this increase was significantly lower than that seen in WT mice	IFN-β levels in DRG lysate were increased	–	–
Cc1ccc2c(=O)c3cccc(CC(=O)O)c3oc2c1C [DMXAA, 2-(5,6-dimethyl-9-oxo-9H-xanthen-4-yl)acetic acid]	–	–	–	–	–	–	–	sharply reduced the cancer-induced increase in current-evoked action potential firing	markedly increased the rheobase of nociceptors
